Measurements: ChEMBL document CHEMBL5030541, “Non-alkylator anti-glioblastoma agents induced cell cycle G2/M arrest and apoptosis: Design, in silico physicochemical and SAR studies of 2-aminoquinoline-3-carboxamides” (Bioorg Med Chem Lett, 2021)
Calls of active or inactive are those of the source. The rule behind the calls is not given here.

Legend:
U-87 MG [1] = experiment: Cytotoxicity against human U-87 MG cells assessed as inhibition of cell growth measured after 48 hrs by MTT assay; type: functional, cell-based, U-87MG ATCC
A549 [2] = experiment: Cytotoxicity against human A549 cells assessed as inhibition of cell growth measured after 48 hrs by MTT assay; type: functional, cell-based; settings: A549, 48 h
MKN-45 [3] = experiment: Cytotoxicity against human MKN-45 cells assessed as inhibition of cell growth measured after 48 hrs by MTT assay; type: functional, cell-based; settings: MKN-45, 48 h
HCT-116 [4] = experiment: Cytotoxicity against human HCT-116 cells assessed as inhibition of cell growth measured after 48 hrs by MTT assay; type: functional, cell-based; settings: HCT-116, 48 h
U-87 MG [5] = experiment: Cytotoxicity against human U-87 MG cells assessed as inhibition of cell growth at 100 uM measured after 48 hrs by MTT assay; type: functional, cell-based; settings: U-87MG ATCC
U-87 MG [6] = experiment: Cytotoxicity against human U-87 MG cells assessed as inhibition of cell growth at 200 uM measured after 48 hrs by MTT assay; type: functional, cell-based; settings: U-87MG ATCC
A549 [7] = experiment: Cytotoxicity against human A549 cells assessed as inhibition of cell growth at 200 uM measured after 48 hrs by MTT assay; type: functional, cell-based
MKN-45 [8] = experiment: Cytotoxicity against human MKN-45 cells assessed as inhibition of cell growth at 200 uM measured after 48 hrs by MTT assay; type: functional, cell-based
HCT-116 [9] = experiment: Cytotoxicity against human HCT-116 cells assessed as inhibition of cell growth at 200 uM measured after 48 hrs by MTT assay; type: functional, cell-based
U-251 = experiment: Cytotoxicity against human U-251 cells assessed as inhibition of cell growth measured after 48 hrs by MTT assay; type: functional, cell-based; settings: U-251, 48 h
A 172 = experiment: Cytotoxicity against human A 172 cells assessed as inhibition of cell growth measured after 48 hrs by MTT assay; type: functional, cell-based; settings: A 172, 48 h
U-118-MG [10] = experiment: Cytotoxicity against human U-118-MG cells assessed as inhibition of cell growth measured after 48 hrs by MTT assay; type: functional, cell-based
L02 = experiment: Cytotoxicity against human L02 cells assessed as inhibition of cell growth measured after 48 hrs by MTT assay; type: cell-based; settings: L02, 48 h
NCM460 = experiment: Cytotoxicity against human NCM460 cells assessed as inhibition of cell growth measured after 48 hrs by MTT assay; type: cell-based; settings: NCM460, 48 h
CCD-841CoN = experiment: Cytotoxicity against human CCD-841CoN cells assessed as inhibition of cell growth measured after 48 hrs by MTT assay; type: cell-based
U-87 MG [11] = experiment: Effect on cell morphology in human U-87 MG cells assessed as appearance of round cells; type: functional, cell-based; settings: U-87MG ATCC
U-118-MG [12] = experiment: Effect on cell morphology in human U-118-MG cells assessed as appearance of round cells; type: functional, cell-based
U-87 MG [13] = experiment: Effect on cell morphology in human U-87 MG cells assessed as lose of adherence; type: functional, cell-based; settings: U-87MG ATCC
U-118-MG [14] = experiment: Effect on cell morphology in human U-118-MG cells assessed as lose of adherence; type: functional, cell-based
U-87 MG [15] = experiment: Induction of cell cycle arrest in human U-87 MG cells assessed as accumulation of cells at G2/M phase at 0.5 times IC50 measured after 48 hrs by PI staining based flow cytometry analysis (Rvb= 5.39%); type: functional, U-87MG ATCC
U-87 MG [16] = experiment: Induction of apoptosis in human U-87 MG cells assessed as live cells at 44 uM measured after 48 hrs by annexin V-FITC/PI staining based flow cytometry analysis (Rvb= 91.6%); type: functional, U-87MG ATCC
U-87 MG [17] = experiment: Induction of apoptosis in human U-87 MG cells assessed as early apoptotic cells at 44 uM measured after 48 hrs by annexin V-FITC/PI staining based flow cytometry analysis (Rvb= 6.21%); type: functional, U-87MG ATCC
U-87 MG [18] = experiment: Induction of apoptosis in human U-87 MG cells assessed as late apoptotic cells at 44 uM measured after 48 hrs by annexin V-FITC/PI staining based flow cytometry analysis (Rvb= 2.11%); type: functional, U-87MG ATCC
U-87 MG [19] = experiment: Induction of apoptosis in human U-87 MG cells assessed as dead cells at 44 uM measured after 48 hrs by Annexin V-FITC/PI staining based flow cytometry analysis (Rvb= 0.098%); type: functional, U-87MG ATCC

SMILES	IC50 (U-87 MG [1]) [µM]	IC50 (A549 [2]) [µM]	IC50 (MKN-45 [3]) [µM]	IC50 (HCT-116 [4]) [µM]	other results
Nc1nc2ncccc2cc1C(=O)NCc1cccnc1	303	> 200	> 200	> 200	
Nc1nc2cc3c(cc2cc1C(=O)NCc1ccccc1)OCO3	75.6	> 200	> 200	> 200	
Nc1nc2cc3c(cc2cc1C(=O)NCC1CC1)OCO3	77.2	> 200	> 200	> 200	
Nc1nc2cc(Cl)ccc2cc1C(=O)NCc1cccnc1	125	> 200	> 200	> 200	
Nc1nc2cc3c(cc2cc1C(=O)NCCc1c[nH]c2ccccc12)OCO3	45.5	> 200	76.9	> 200	
C#CCNC(=O)c1cc2cc3c(cc2nc1N)OCO3	> 200	92	> 200	> 200	
Nc1nc2cc3c(cc2cc1C(=O)NCCN1C(=O)c2cccc4cccc(c24)C1=O)OCO3	> 200	73.4			
Cn1nnc2c(C(N)=O)ncn2c1=O [TEMOZOLOMIDE]	> 200				
c1cc2cc3c(cc2nc1C1CC1)OCO3	> 200				Activity (U-87 MG [5]): inactive
Nc1nc2cc3c(cc2cc1C(=O)NCc1cccnc1)OCO3	109	> 200	> 200	163	Activity (U-87 MG [6]): inactive; Activity (A549 [7]): inactive; Activity (MKN-45 [8]): inactive; Activity (HCT-116 [9]): inactive
Nc1nc2cc3c(cc2cc1C(=O)NCCc1c[nH]c2ccccc12)OCCO3	44.4				
COc1cc2cc(C(=O)NCCc3c[nH]c4ccccc34)c(N)nc2cc1OC	43.6		72.3		Activity (U-87 MG [5]): Active; IC50 (U-251): 121 µM; IC50 (A 172): 23.7 µM; IC50 (U-118-MG [10]): 29.2 µM; IC50 (L02): 118 µM; IC50 (NCM460): 222 µM; IC50 (CCD-841CoN): 135 µM; Activity (U-87 MG [11]): Active; Activity (U-118-MG [12]): Active; Activity (U-87 MG [13]): Active; Activity (U-118-MG [14]): Active; Activity (U-87 MG [15]): 23.14%; Activity (U-87 MG [16]): 5.65%; Activity (U-87 MG [17]): 50.9%; Activity (U-87 MG [18]): 43%; Activity (U-87 MG [19]): 0.45%
COc1cc2nc(N)c(C(=O)NCCc3c[nH]c4ccccc34)cc2c(Cl)c1OC	60.8		75.1		
